From publication PMC7769672, “Skin-Related Properties and Constituents from the Aerial Parts Extract of Persicaria senticosa” (Oxidative Medicine and Cellular Longevity, 2020)
Several values for one entry are separate records, joined by “and”; a condition that tells them apart may be missing. Identical values can stand only once. Like-named read-outs stand apart in the source and are kept apart here.

What was measured:
mushroom tyrosinase = assay: Tyrosinase inhibition assay; type: biochemical; conditions: for IC50: Table 3, isolated compounds
Experimental: Tyrosinase inhibitory activity was measured by using the method described by Yagi et al.. The reaction was carried out in 0.1 M potassium phosphate buffer (pH 6.5) containing 1.5 mM L-tyrosine and 1250 units/mL mushroom tyrosinase. The reaction mixture was incubated at 37°C for 20 min. The test samples were assayed for tyrosinase inhibition by measuring its effect on tyrosinase activity using SpectraMax 190PC microplate ELISA reader at 490 nm.

[1] = ABTS radical scavenging activity
Experimental: ABTS radical scavenging activity was measured by using a previously described method. ABTS+ was formed by mixing 7 mM ABTS solution and 2.45 mM potassium persulfate (K2S2O8) solution with ABTS: K2S2O8 (2 : 1 ratio) for 12–16 h to form a cation (ABTS^+). The absorbance was measured at 734 nm using an ELISA reader. BHA, an antioxidant, was used as the positive control.

[2] = DPPH radical scavenging activity assay; conditions: for IC50: Table 3, isolated compounds; for DPPH radical scavenging activity (in words): Figure 4
Experimental: DPPH radical scavenging activity was measured by using the method described by Blois and Ozgen et al.. DPPH solution dissolved in methanol was added to the sample, which was diluted to the required concentration, and the reaction was carried out at room temperature for 30 min. Absorbance was measured at 517 nm using an ELISA reader. The antioxidant butylated hydroxyanisole (BHA) was used as a positive control, and the IC50 value of the sample was determined.

elastase = elastase (Sus scrofa, UniProt P00772); assay: Elastase inhibition assay; type: biochemical
Experimental: The reaction was carried out in 0.5 mM Tris buffer (pH 8.5) containing 1 mg/mL N-succinyl-(Ala)3-p-nitroanilide and 0.6 unit/mL elastase. The reaction mixture was incubated at 25°C for 10 min. The test samples were assayed for elastase inhibition by measuring its effect on elastase activity using an ELISA reader at 405 nm. Ursolic acid was used as a positive control, and the IC50 value of the sample was determined.

RAW 264.7 cells [3] = assay: Cell cytotoxicity assay (MTT); type: cell-based, murine; conditions: Mus musculus, RAW264.7
Experimental: RAW 264.7 cells were plated at a density of 5 × 10^4 cells/well in 96-well plates. Cells were treated with samples for 1 h prior to LPS (1 μg/mL) stimulation for 24 h. MTT (5 mg/mL in PBS) was added to each well and incubated for 2 hr. The medium was removed from the wells by aspiration, DMSO was added to each well, and the plate was shaken. The absorbance of each well was measured at a wavelength of 540 nm using an ELISA reader. Data are presented as the mean ± standard deviation of three replicates.

RAW 264.7 cells [4] = assay: NO assay (nitrite by Griess reagent in LPS-stimulated cells); type: cell-based, murine
Experimental: RAW 264.7 cells were seeded in 96-well plates (5 × 10^4 cells/well) and were treated with sample for 1 h prior to LPS (1 μg/mL) stimulation for 24 h. The negative control was treated with serum-free media. The amount of nitrite, a stable metabolite of NO, was measured by using Griess reagent (1% sulfanilamide and 0.1% naphthylethylenediamine dihydrochloride in 2.5% phosphoric acid). Absorbance was subsequently measured at 540 nm using an ELISA reader. The quantity of nitrite was determined from a standard curve for sodium nitrite.

[5] = Table 3, isolated compounds, read-out: Elastase inhibition assay IC50
[6] = Table 3, isolated compounds, read-out: MTT assay IC50
[7] = Mus musculus, RAW264.7, Table 3, isolated compounds, read-out: NO assay IC50

Sequence of elastase (P00772 27-266): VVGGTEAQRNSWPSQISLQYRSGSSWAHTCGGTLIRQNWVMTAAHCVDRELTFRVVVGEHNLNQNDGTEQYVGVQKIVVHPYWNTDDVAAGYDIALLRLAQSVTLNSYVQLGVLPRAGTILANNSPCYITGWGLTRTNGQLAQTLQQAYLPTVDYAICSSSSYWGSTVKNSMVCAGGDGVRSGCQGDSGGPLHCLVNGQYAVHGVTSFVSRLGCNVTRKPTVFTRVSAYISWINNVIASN

Structure (SMILES)	IC50 [2]	IC50 (elastase; [5]) [µM]	IC50 (mushroom tyrosinase) [µM]	IC50 (RAW 264.7 cells [4]; [7]) [µM]	IC50 (RAW 264.7 cells [3]; [6]) [µM]	further results
OC[C@H]1O[C@@H](Oc2ccc(O)cc2)[C@H](O)[C@@H](O)[C@@H]1O [Arbutin, reference compound]	–	–	–	–	–	Whitening Tyrosinase assay (IC50) (mushroom tyrosinase; Table 1, methanol extracts, L-tyrosine substrate): Arbutin 135.0 ± 19.9 μg/mL
COc1ccc(O)c(C(C)(C)C)c1 [BHA, butylated hydroxyanisole, reference compound]	272 µM	–	–	–	–	Antioxidant ABTS (IC50) ([1]; Table 1, methanol extracts, 734 nm): BHA 2.9 ± 0.1 μg/mL; Antioxidant ABTS ([1]; Table 2, fractions): BHA 4.03 ± 0.05 μg/mL; Antioxidant DPPH (IC50) ([2]; Table 1, methanol extracts, 30 min, 517 nm): BHA 15.6 ± 0.2 μg/mL; Antioxidant DPPH ([2]; Table 2, fractions): BHA 14.58 ± 0.06 μg/mL
CC1(C)C[C@H](O)C[C@@]2(C)OC(=O)C=C12 [Compound 1, loliolide]	> 1000 µM	> 1000	> 100	> 100	> 100	–
O=c1c(O[C@@H]2O[C@H](CO)[C@@H](O)[C@H](O)[C@H]2O)c(-c2ccc(O)c(O)c2)oc2cc(O)cc(O)c12 [Compound 2, quercetin-3-O-glucoside]	39.6 µM and 39.4 µM	> 1000	> 100	> 100	> 100	DPPH radical scavenging activity (in words) [2]: excellent antioxidant activity; IC50 ([2]; listed as Comp. 2): 39.6 ± 4.1 µM
O=C(O)C1OC(Oc2c(-c3ccc(O)c(O)c3)oc3cc(O)cc(O)c3c2=O)C(O)C(O)C1O (stereo not drawn) [Compound 3, quercetin-3-O-glucuronide]	31.2 µM	> 1000	> 100	> 100	> 100	IC50 ([2]; listed as Comp. 3): 31.2 ± 0.47 µM
COc1ccc(/C=C/C(=O)OC(C(=O)O)C(O)C(=O)O)cc1O (stereo not drawn) [Compound 4, 4-methoxy caftraric acid]	> 1000 µM	> 1000	> 100	> 100	84.6 ± 9.85	–
COC(=O)C1OC(Oc2c(-c3ccc(O)cc3)oc3cc(O)cc(O)c3c2=O)C(O)C(O)C1O (stereo not drawn) [Compound 5, kaempferol-3-(6-methylglucuronide)]	37 µM	> 1000	> 100	> 100	> 100	DPPH radical scavenging activity (in words) [2]: excellent antioxidant activity; IC50 ([2]; listed as Comp. 5): 36.99 ± 0.16 µM

Continued, in another order:

IC50 [2]	IC50 (elastase; [5]) [µM]	IC50 (mushroom tyrosinase) [µM]	IC50 (RAW 264.7 cells [4]; [7]) [µM]	Structure (SMILES)	IC50 (RAW 264.7 cells [3]; [6]) [µM]	further results
> 1000 µM	> 1000	> 100	> 100	COC(=O)C1OC(Oc2c(-c3ccc(O)c(O)c3)oc3cc(O)cc(O)c3c2=O)C(O)C(O)C1O (stereo not drawn) [Compound 6, quercetin-3-(6-methylglucuronide)]	> 100	–
22.7 µM	–	–	29.7	O=c1c(O)c(-c2ccc(O)c(O)c2)oc2cc(O)cc(O)c12 [Compound 7, quercetin]	> 100	IC50 (RAW 264.7 cells [4]; Table 3, isolated compounds, listed as Comp. 7, read-out: NO assay IC50): 29.7 ± 7.07 µM; IC50 ([2]; listed as Comp. 7): 22.7 ± 0.53 µM
–	–	–	14.6	[H]/N=C(/NC)NCCC[C@H](N)C(=O)O [L-NMMA, reference compound]	> 100	IC50 (RAW 264.7 cells [3]; Table 1 positive control, read-out: Anti-inflammatory MTT, positive control): > 100 µM; IC50 (RAW 264.7 cells [4]; Mus musculus, RAW264.7, Table 2 positive control, read-out: Anti-inflammatory NO, positive control): 37.6 µM; IC50 (RAW 264.7 cells [4]; Mus musculus, RAW264.7, Table 1 positive control, read-out: Anti-inflammatory NO (IC50), positive control): 36.3 µM
–	86.3	–	–	C[C@H]1[C@H](C)CC[C@]2(C(=O)O)CC[C@]3(C)C(=CC[C@@H]4[C@@]5(C)CC[C@H](O)C(C)(C)[C@@H]5CC[C@]43C)[C@H]12 [Ursolic acid, reference compound]	–	IC50 (elastase; Table 1, methanol extracts, read-out: Anti-wrinkle Elastase assay (IC50)): 116 µM; IC50 (elastase; Table 2, fractions, unit inferred, read-out: Antiwrinkle Elastase assay): 85.3 µM
